Key:
UACC-62 = assay: Growth inhibition of human UACC62 cells after 48 hrs by sulforhodamine B protein assay; format: functional; conditions: UACC-62, 48 h
IGROV-1 = assay: Growth inhibition of human IGROV1 cells after 48 hrs by sulforhodamine B protein assay; format: functional; conditions: IGROV-1, 48 h
OVCAR-3 = assay: Growth inhibition of human OVCAR-3 cells after 48 hrs by sulforhodamine B protein assay; format: functional; conditions: OVCAR-3, 48 h
OVCAR-5 = assay: Growth inhibition of human OVCAR5 cells after 48 hrs by sulforhodamine B protein assay; format: functional; conditions: OVCAR-5, 48 h
OVCAR-8 = assay: Growth inhibition of human OVCAR8 cells after 48 hrs by sulforhodamine B protein assay; format: functional; conditions: OVCAR-8, 48 h
SK-OV-3 = assay: Growth inhibition of human SKOV3 cells after 48 hrs by sulforhodamine B protein assay; format: functional; conditions: SK-OV-3, 48 h
786-0 = assay: Growth inhibition of human 786-0 cells after 48 hrs by sulforhodamine B protein assay; format: functional; conditions: 786-0, 48 h
ACHN = assay: Growth inhibition of human ACHN cells after 48 hrs by sulforhodamine B protein assay; format: functional
CAKI-1 = assay: Growth inhibition of human Caki1 cells after 48 hrs by sulforhodamine B protein assay; format: functional; conditions: CAKI-1, 48 h
RXF 393 = assay: Growth inhibition of human […] cells after 48 hrs by sulforhodamine B protein assay; format: functional; conditions: RXF 393, 48 h
SN12C = assay: Growth inhibition of human SN12C cells after 48 hrs by sulforhodamine B protein assay; format: functional
TK-10 = assay: Growth inhibition of human TK10 cells after 48 hrs by sulforhodamine B protein assay; format: functional; conditions: TK-10, 48 h
PC-3 = assay: Growth inhibition of human PC3 cells after 48 hrs by sulforhodamine B protein assay; format: functional; conditions: PC-3, 48 h
DU-145 = assay: Growth inhibition of human DU145 cells after 48 hrs by sulforhodamine B protein assay; format: functional; conditions: DU-145, 48 h
MCF7 = assay: Growth inhibition of human MCF7 cells after 48 hrs by sulforhodamine B protein assay; format: functional; conditions: MCF7, 48 h
MDA-MB-231 = assay: Growth inhibition of human MDA-MB-231 cells after 48 hrs by sulforhodamine B protein assay; format: functional; conditions: MDA-MB-231, 48 h
[1] = Growth inhibition of human Hs 578T cells after 48 hrs by sulforhodamine B protein assay; format: functional
MDA-MB-435 = assay: Growth inhibition of human MDA-MB-435 cells after 48 hrs by sulforhodamine B protein assay; format: functional; conditions: MDA-MB-435, 48 h
BT-549 = assay: Growth inhibition of human BT549 cells after 48 hrs by sulforhodamine B protein assay; format: functional; conditions: BT-549, 48 h
T47D = assay: Growth inhibition of human T47D cells after 48 hrs by sulforhodamine B protein assay; format: functional
MDA-MB-468 = assay: Growth inhibition of human MDA-MB-468 cells after 48 hrs by sulforhodamine B protein assay; format: functional; conditions: MDA-MB-468, 48 h
DNA = assay: Binding affinity to calf thymus DNA assessed as change in melting temperature at a compound to DNA molar ratio of 1:5 at pH 7 by thermal denaturation assay; format: nucleic-acid assay; conditions: Bos taurus
[2] = molecular target: T1, Type II restriction enzyme BamHI (Bacillus amyloliquefaciens) (UniProt P23940); assay: Inhibition of Bacillus amyloliquefaciens BamH1-mediated pBR322 cleavage after 16 hrs by RED100-restriction endonuclease digestion assay
T1 sequence (whole entry): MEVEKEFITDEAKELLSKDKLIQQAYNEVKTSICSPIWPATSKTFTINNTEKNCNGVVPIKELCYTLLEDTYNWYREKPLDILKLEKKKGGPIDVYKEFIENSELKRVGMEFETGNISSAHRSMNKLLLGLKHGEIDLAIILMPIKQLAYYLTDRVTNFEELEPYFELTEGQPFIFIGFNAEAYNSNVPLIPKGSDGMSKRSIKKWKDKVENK

CCRF-CEM = assay: Growth inhibition of human CCRF-CEM cells after 48 hrs by sulforhodamine B protein assay; format: functional
HL-60(TB) = assay: Growth inhibition of human HL-60(TB) cells after 48 hrs by sulforhodamine B protein assay; format: functional; conditions: HL-60, 48 h
K562 = assay: Growth inhibition of human K562 cells after 48 hrs by sulforhodamine B protein assay; format: functional; conditions: K562, 48 h
MOLT-4 = assay: Growth inhibition of human MOLT4 cells after 48 hrs by sulforhodamine B protein assay; format: functional; conditions: MOLT-4, 48 h
[3] = Growth inhibition of human […] cells after 48 hrs by sulforhodamine B protein assay; format: functional
SR = assay: Growth inhibition of human SR cells after 48 hrs by sulforhodamine B protein assay; format: functional
A549 = assay: Growth inhibition of human A549 cells after 48 hrs by sulforhodamine B protein assay; format: functional; conditions: A549, 48 h
HOP-62 = assay: Growth inhibition of human HOP62 cells after 48 hrs by sulforhodamine B protein assay; format: functional; conditions: HOP-62, 48 h
HOP-92 = assay: Growth inhibition of human HOP92 cells after 48 hrs by sulforhodamine B protein assay; format: functional; conditions: HOP-92, 48 h
NCI-H23 = assay: Growth inhibition of human NCI-H23 cells after 48 hrs by sulforhodamine B protein assay; format: functional; conditions: NCI-H23, 48 h
NCI-H460 = assay: Growth inhibition of human NCI-H460 cells after 48 hrs by sulforhodamine B protein assay; format: functional; conditions: NCI-H460, 48 h
NCI-H522 = assay: Growth inhibition of human NCI-H522 cells after 48 hrs by sulforhodamine B protein assay; format: functional; conditions: NCI-H522, 48 h
COLO 205 = assay: Growth inhibition of human COLO205 cells after 48 hrs by sulforhodamine B protein assay; format: functional; conditions: COLO 205, 48 h
HCC 2998 = assay: Growth inhibition of human HCC2998 cells after 48 hrs by sulforhodamine B protein assay; format: functional; conditions: HCC 2998, 48 h
HCT-116 = assay: Growth inhibition of human HCT116 cells after 48 hrs by sulforhodamine B protein assay; format: functional; conditions: HCT-116, 48 h
HT-29 = assay: Growth inhibition of human HT-29 cells after 48 hrs by sulforhodamine B protein assay; format: functional; conditions: HT-29, 48 h
KM12 = assay: Growth inhibition of human KM12 cells after 48 hrs by sulforhodamine B protein assay; format: functional; conditions: KM12, 48 h
SW-620 = assay: Growth inhibition of human SW620 cells after 48 hrs by sulforhodamine B protein assay; format: functional; conditions: SW-620, 48 h
SF-268 = assay: Growth inhibition of human SF268 cells after 48 hrs by sulforhodamine B protein assay; format: functional; conditions: SF-268, 48 h
SF-539 = assay: Growth inhibition of human SF539 cells after 48 hrs by sulforhodamine B protein assay; format: functional; conditions: SF-539, 48 h
SNB-19 = assay: Growth inhibition of human SNB19 cells after 48 hrs by sulforhodamine B protein assay; format: functional; conditions: SNB-19, 48 h
SNB-75 = assay: Growth inhibition of human SNB75 cells after 48 hrs by sulforhodamine B protein assay; format: functional; conditions: SNB-75, 48 h
U-251 = assay: Growth inhibition of human U251 cells after 48 hrs by sulforhodamine B protein assay; format: functional; conditions: U-251, 48 h
LOX IMVI = assay: Growth inhibition of human LOXIMVI cells after 48 hrs by sulforhodamine B protein assay; format: functional
Malme-3M = assay: Growth inhibition of human MALME-3M cells after 48 hrs by sulforhodamine B protein assay; format: functional
M14 = assay: Growth inhibition of human M14 cells after 48 hrs by sulforhodamine B protein assay; format: functional; conditions: M14, 48 h
SK-MEL-28 = assay: Growth inhibition of human SK-MEL-28 cells after 48 hrs by sulforhodamine B protein assay; format: functional; conditions: SK-MEL-28, 48 h
SK-MEL-5 = assay: Growth inhibition of human SK-MEL-5 cells after 48 hrs by sulforhodamine B protein assay; format: functional; conditions: SK-MEL-5, 48 h
A498 = assay: Growth inhibition of human A498 cells after 48 hrs by sulforhodamine B protein assay; format: functional; conditions: A498, 48 h

For `COc1cc2c(cc1OCCCN1CCN(CCCOc3cc4c(cc3OC)C(=O)N3CC(F)(F)C[C@H]3C=N4)CC1)N=C[C@@H]1CC(F)(F)CN1C2=O`, the GI50 (UACC-62) was 3.05 µM, the GI50 (IGROV-1) was 1.92 µM and the GI50 (OVCAR-3) was 3.55 µM. It also gave a GI50 (OVCAR-5) of 3.83 µM, a GI50 (OVCAR-8) of 6.3 µM and a GI50 (SK-OV-3) of 8.64 µM. For the same molecule, the GI50 (786-0) was 3.17 µM, the GI50 (ACHN) was 5.64 µM and the GI50 (CAKI-1) was 3.31 µM. For the same molecule, the GI50 (RXF 393) was 2.14 µM, the GI50 (SN12C) was 4.05 µM and the GI50 (TK-10) was 4.38 µM. It also gave a GI50 (PC-3) of 3.06 µM, a GI50 (DU-145) of 3.63 µM and a GI50 (MCF7) of 2.02 µM. For the same molecule, the GI50 (MDA-MB-231) was 4.29 µM, the GI50 [1] was 2.32 µM and the GI50 (MDA-MB-435) was 2.94 µM. For the same molecule, the GI50 (BT-549) was 1.95 µM, the GI50 (T47D) was 3.25 µM and the GI50 (MDA-MB-468) was 1.38 µM. For the same molecule, the ΔTm (DNA) was 11 °C, the Activity [2] was “Dose-dependent effect” and the GI50 (CCRF-CEM) was 0.97 µM. The GI50 (HL-60(TB)) was 1.18 µM, the GI50 (K562) was 1.74 µM and the GI50 (MOLT-4) was 2.02 µM. The GI50 [3] was 2.2 µM, the GI50 (SR) was 0.88 µM and the GI50 (A549) was 7.32 µM. It also gave a GI50 (HOP-62) of 3.17 µM, a GI50 (HOP-92) of 6.14 µM and a GI50 (NCI-H23) of 4.66 µM. For the same molecule, the GI50 (NCI-H460) was 2.6 µM, the GI50 (NCI-H522) was 1.14 µM and the GI50 (COLO 205) was 3.09 µM. The GI50 (HCC 2998) was 5.4 µM, the GI50 (HCT-116) was 3.59 µM and the GI50 (HT-29) was 3.61 µM. The GI50 (KM12) was 4.1 µM, the GI50 (SW-620) was 2.61 µM and the GI50 (SF-268) was 3.57 µM. The GI50 (SF-539) was 3.05 µM, the GI50 (SNB-19) was 4.08 µM and the GI50 (SNB-75) was 5.52 µM. For the same molecule, the GI50 (U-251) was 3.36 µM, the GI50 (LOX IMVI) was 1.89 µM and the GI50 (Malme-3M) was 2.8 µM. It also gave a GI50 (M14) of 3.25 µM, a GI50 (SK-MEL-28) of 1.86 µM and a GI50 (SK-MEL-5) of 4.28 µM. It also gave a GI50 (A498) of 2.43 µM.

In the case of `COc1cc2c(cc1OCCCCCN1CCN(CCCCCOc3cc4c(cc3OC)C(=O)N3CC(F)C[C@H]3C=N4)CC1)N=C[C@@H]1CC(F)CN1C2=O` (some centres not stated), the ΔTm (DNA) is reported as 37 °C.

Work on `COc1cc2c(cc1OCCCCN1CCN(CCCCOc3cc4c(cc3OC)C(=O)N3CC(F)C[C@H]3C=N4)CC1)N=C[C@@H]1CC(F)CN1C2=O` (some centres not stated) yielded a ΔTm (DNA) of 38 °C.

In the case of `C=C1C[C@H]2C=Nc3cc(OCCCOc4cc5c(cc4OC)C(=O)N4CC(=C)C[C@H]4C=N5)c(OC)cc3C(=O)N2C1`, the ΔTm (DNA) is reported as 25.7 °C.

In the case of `COc1cc2c(cc1OCCCN1CCN(CCCOc3cc4c(cc3OC)C(=O)N3CC(=C(F)F)C[C@H]3C=N4)CC1)N=C[C@@H]1CC(=C(F)F)CN1C2=O`, the ΔTm (DNA) is reported as 28.9 °C and the Activity [2] is reported as “Dose-dependent effect”.
